From patent US4156000A, “Cyclopenta[b]thiophene derivatives” (Hexachimie, priority 1976, dated 1979)
Structures can show the parent of a compound that is named as a salt.

How the values were obtained:
[1] = test system: pain reactions (abdominal contortions); test: Analgesic activity: phenylbenzoquinone-induced pain reactions, oral administration; format: in vivo, mice (male, SPF1, strain OF1); conditions: Mus musculus; for inhibition in vivo at 8 mg/kg: 8 mg/kg oral administration; for inhibition in vivo at 16 mg/kg: 16 mg/kg oral administration; for inhibition in vivo at 32 mg/kg: 32 mg/kg oral administration; for inhibition in vivo at 64 mg/kg: 64 mg/kg oral administration; for inhibition in vivo at 4 mg/kg: 4 mg/kg oral administration; for inhibition in vivo at 256 mg/kg: 256 mg/kg oral administration
Experimental: Batches of 6 male mice (SPF1, strain OF1), weighing 19-20 g each are given the product to be tested, by oral administration. One hour afterwards, each mouse is injected intraperitoneally with 0.3 cm^3 of an 0.02% strength phenylbenzoquinone solution and from the 5th to the 10th minute after this latter treatment, the number of pain reactions (abdominal contortions) is counted. The table which follows gives the percentage inhibition of these reactions.

[2] = test system: rear paw which has received the carrageenin; test: Anti-inflammatory activity: carrageenin-induced rear paw swelling, oral administration; format: in vivo, rats (male SPF, strain OFA); conditions: for inhibition in vivo at 16 mg/kg / inhibition in vivo at 64 mg/kg / inhibition in vivo at 128 mg/kg / inhibition in vivo at 256 mg/kg / inhibition in vivo at 4 mg/kg: Rattus norvegicus, read-out: % of inhibition (reduction of swelling); for inhibition in vivo at 16 mg/kg: 16 mg/kg oral administration; for inhibition in vivo at 128 mg/kg: 128 mg/kg oral administration; for inhibition in vivo at 256 mg/kg: 256 mg/kg oral administration; for inhibition in vivo at 4 mg/kg: 4 mg/kg oral administration
Experimental: Batches of 12 male SPF rats, strain OFA, weighing 120-130 g each, are given the product to be tested by oral administration 2 hours before and 30 minutes before (1/2 dose each time) subcutaneous plantar injection of 0.05 cm^3 of a 1% solution of carrageenin. The volume of the rear paw which has received the carrageenin is measured at regular intervals.

In the case of `CCC1Cc2cc(C(C)C(=O)O)sc2C1` (stereo not shown) [23 & 27], the inhibition in vivo at 8 mg/kg [1] is reported as 7%, the inhibition in vivo at 16 mg/kg [1] is reported as 35% and the inhibition in vivo at 32 mg/kg [1] is reported as 79%. The inhibition in vivo at 64 mg/kg [1] was 98%, the inhibition in vivo at 16 mg/kg [2] was 30% and the inhibition in vivo at 64 mg/kg ([2]; 64 mg/kg oral administration) was 67%. It also gave an inhibition in vivo at 128 mg/kg [2] of 66% and an inhibition in vivo at 256 mg/kg [2] of 56%.

In the case of `CC(C(=O)O)c1cc2c(s1)CC(C(C)C)C2` (stereo not shown) [24 & 28], the inhibition in vivo at 4 mg/kg [1] is reported as 0%, the inhibition in vivo at 8 mg/kg [1] is reported as 35% and the inhibition in vivo at 16 mg/kg [1] is reported as 66%. The inhibition in vivo at 32 mg/kg [1] was 89%, the inhibition in vivo at 64 mg/kg [1] was 96% and the inhibition in vivo at 4 mg/kg [2] was 0%. The inhibition in vivo at 16 mg/kg [2] was 32%, the inhibition in vivo at 64 mg/kg ([2]; 64 mg/kg oral administration) was 63% and the inhibition in vivo at 128 mg/kg [2] was 59%. The inhibition in vivo at 256 mg/kg [2] was 46%.

`CCC1Cc2cc(CC(=O)O)sc2C1` (stereo not shown) [Example 17, (5-Ethyl-4,5-dihydro-6H-cyclopenta[b]thienyl-2)-acetic acid] showed an inhibition in vivo at 16 mg/kg [1] of 17%, an inhibition in vivo at 32 mg/kg [1] of 58% and an inhibition in vivo at 64 mg/kg [1] of 63%. It also gave an inhibition in vivo at 4 mg/kg [2] of 17%, an inhibition in vivo at 16 mg/kg [2] of 24% and an inhibition in vivo at 64 mg/kg ([2]; 64 mg/kg oral administration) of 55%. For the same molecule, the inhibition in vivo at 128 mg/kg [2] was 52% and the inhibition in vivo at 256 mg/kg [2] was 66%.

For `CC(C)C1Cc2cc(CC(=O)O)sc2C1` (stereo not shown) [Example 18, (5-Isopropyl-4,5-dihydro-6H-cyclopenta[b]thienyl-2)-acetic acid], the inhibition in vivo at 16 mg/kg [1] was 4%, the inhibition in vivo at 32 mg/kg [1] was 27% and the inhibition in vivo at 64 mg/kg [1] was 61%. The inhibition in vivo at 4 mg/kg [2] was 0%, the inhibition in vivo at 16 mg/kg [2] was 0% and the inhibition in vivo at 64 mg/kg ([2]; 64 mg/kg oral administration) was 31%. For the same molecule, the inhibition in vivo at 128 mg/kg [2] was 47% and the inhibition in vivo at 256 mg/kg [2] was 57%.

`CCC1Cc2cc(C(C)C(=O)OCCN3CCOCC3)sc2C1` (stereo not drawn) [Example 30, Hydrochloride of the morpholinoethyl ester of α-methyl(5-ethyl-4,5-dihydro-6H-cyclopenta[b]thienyl-2)-acetic acid] showed an inhibition in vivo at 8 mg/kg [1] of 9%, an inhibition in vivo at 16 mg/kg [1] of 6% and an inhibition in vivo at 32 mg/kg [1] of 85%. It also gave an inhibition in vivo at 64 mg/kg [1] of 93%, an inhibition in vivo at 4 mg/kg [2] of 18% and an inhibition in vivo at 16 mg/kg [2] of 38%. It also gave an inhibition in vivo at 64 mg/kg ([2]; 64 mg/kg oral administration) of 53%, an inhibition in vivo at 128 mg/kg [2] of 67% and an inhibition in vivo at 256 mg/kg [2] of 79%.

`CCC1Cc2cc(CC(=O)OCCN3CCOCC3)sc2C1` (stereo not shown) [Example 32, Hydrochloride of the morpholinoethyl ester of (5-ethyl-4.5-dihydro-6H-cyclopenta[b]thienyl-2)-acetic acid] gave an inhibition in vivo at 16 mg/kg [1] of 25%, an inhibition in vivo at 32 mg/kg [1] of 48% and an inhibition in vivo at 64 mg/kg [1] of 53%. For the same molecule, the inhibition in vivo at 4 mg/kg [2] was 0%, the inhibition in vivo at 16 mg/kg [2] was 16% and the inhibition in vivo at 64 mg/kg ([2]; 64 mg/kg oral administration) was 20%. For the same molecule, the inhibition in vivo at 128 mg/kg [2] was 51% and the inhibition in vivo at 256 mg/kg [2] was 53%.

In the case of `CCC1Cc2cc(CC(=O)OCCN(C)C)sc2C1` (stereo not shown) [Example 33, Hydrochloride of the dimethylaminoethyl ester of (5-ethyl-4,5-dihydro-6H-cyclopenta[b]thienyl-2)-acetic acid], the inhibition in vivo at 16 mg/kg [1] is reported as 37%, the inhibition in vivo at 64 mg/kg [1] is reported as 17% and the inhibition in vivo at 256 mg/kg [1] is reported as 95%. For the same molecule, the inhibition in vivo at 4 mg/kg [2] was 2%, the inhibition in vivo at 16 mg/kg [2] was 17% and the inhibition in vivo at 64 mg/kg ([2]; 64 mg/kg oral administration) was 55%. It also gave an inhibition in vivo at 128 mg/kg [2] of 54% and an inhibition in vivo at 256 mg/kg [2] of 52%.

In the case of `CCC1Cc2cc(C(C)C(=O)OCCN(C)C)sc2C1` (stereo not drawn) [Example 34, Hydrochloride of the dimethylaminoethyl ester of α-methyl-(5-ethyl-4,5-dihydro-6H-cyclopenta[b]thienyl-2)-acetic acid], the inhibition in vivo at 4 mg/kg [1] is reported as 21%, the inhibition in vivo at 8 mg/kg [1] is reported as 46% and the inhibition in vivo at 16 mg/kg [1] is reported as 74%. The inhibition in vivo at 32 mg/kg [1] was 95%, the inhibition in vivo at 4 mg/kg [2] was 3% and the inhibition in vivo at 16 mg/kg [2] was 12%. It also gave an inhibition in vivo at 64 mg/kg ([2]; 64 mg/kg oral administration) of 45%, an inhibition in vivo at 128 mg/kg [2] of 64% and an inhibition in vivo at 256 mg/kg [2] of 82%.

`CC(C(=O)OCCN1CCOCC1)c1cc2c(s1)CC(C(C)C)C2` (stereo not drawn) [Example 36, Hydrochloride of the morpholinoethyl ester of α-methyl-(5-isopropyl-4,5-dihydro-6H-cyclopenta[b]thienyl-2)-acetic acid] showed an inhibition in vivo at 8 mg/kg [1] of 23%, an inhibition in vivo at 16 mg/kg [1] of 80% and an inhibition in vivo at 32 mg/kg [1] of 84%. For the same molecule, the inhibition in vivo at 4 mg/kg [2] was 29%, the inhibition in vivo at 16 mg/kg [2] was 30% and the inhibition in vivo at 64 mg/kg ([2]; 64 mg/kg oral administration) was 62%. It also gave an inhibition in vivo at 128 mg/kg [2] of 56% and an inhibition in vivo at 256 mg/kg [2] of 66%.

In the case of `CC(C(=O)OCCN(C)C)c1cc2c(s1)CC(C(C)C)C2` (stereo not shown) [Example 37], the inhibition in vivo at 4 mg/kg [1] is reported as 10%, the inhibition in vivo at 8 mg/kg [1] is reported as 53% and the inhibition in vivo at 16 mg/kg [1] is reported as 42%. For the same molecule, the inhibition in vivo at 32 mg/kg [1] was 80%, the “% of inhibition (reduction of swelling)” value ([2]; 64 mg/kg oral administration) was 45Z and the inhibition in vivo at 4 mg/kg [2] was 5%. For the same molecule, the inhibition in vivo at 16 mg/kg [2] was 35%, the inhibition in vivo at 128 mg/kg [2] was 63% and the inhibition in vivo at 256 mg/kg [2] was 58%.

`CC(C)C1Cc2cc(CC(=O)OCCN3CCOCC3)sc2C1` (stereo not shown) [Example 39, Hydrochloride of the morpholinoethyl ester of (5-isopropyl-4,5-dihydro-6H-cyclopenta[b]thienyl-2)-acetic acid] showed an inhibition in vivo at 64 mg/kg [1] of 12%, an inhibition in vivo at 256 mg/kg [1] of 53% and an inhibition in vivo at 4 mg/kg [2] of 7%. For the same molecule, the inhibition in vivo at 16 mg/kg [2] was 23%, the inhibition in vivo at 64 mg/kg ([2]; 64 mg/kg oral administration) was 20% and the inhibition in vivo at 128 mg/kg [2] was 53%. The inhibition in vivo at 256 mg/kg [2] was 56%.

For `CC(C)C1Cc2cc(CC(=O)OCCN(C)C)sc2C1` (stereo not shown) [Example 40, Hydrochloride of the dimethylaminoethyl ester of (5-isopropyl-4,5-dihydro-6H-cyclopenta[b]thienyl-2)-acetic acid], the inhibition in vivo at 16 mg/kg [1] was 0%, the inhibition in vivo at 64 mg/kg [1] was 31% and the inhibition in vivo at 256 mg/kg [1] was 88%. The inhibition in vivo at 4 mg/kg [2] was 8%, the inhibition in vivo at 16 mg/kg [2] was 7% and the inhibition in vivo at 64 mg/kg ([2]; 64 mg/kg oral administration) was 13%. For the same molecule, the inhibition in vivo at 128 mg/kg [2] was 22% and the inhibition in vivo at 256 mg/kg [2] was 32%.
